Experimental data from paper PMC6324813, “Biological evaluation of isoflavonoids from Genista halacsyi using estrogen-target cells: Activities of glucosides compared to aglycones” (PLoS ONE, 2019).
Like-named read-outs stand apart in the source and are kept apart here.

Assays:
[1] = target: T1, ERβ (Homo sapiens, UniProt Q92731); experiment: ER binding competitor assay (fluorescent estrogen ES2), ERβ; parameters: purchased Invitrogen; conditions: for RBAβ / RBAα: ERβ-binding selectivity; for RBAβ: RBA = (IC50 estradiol/IC50 compound) × 100, ES2 1 nM, estradiol set equal to 100
T1 sequence (Q92731 whole entry): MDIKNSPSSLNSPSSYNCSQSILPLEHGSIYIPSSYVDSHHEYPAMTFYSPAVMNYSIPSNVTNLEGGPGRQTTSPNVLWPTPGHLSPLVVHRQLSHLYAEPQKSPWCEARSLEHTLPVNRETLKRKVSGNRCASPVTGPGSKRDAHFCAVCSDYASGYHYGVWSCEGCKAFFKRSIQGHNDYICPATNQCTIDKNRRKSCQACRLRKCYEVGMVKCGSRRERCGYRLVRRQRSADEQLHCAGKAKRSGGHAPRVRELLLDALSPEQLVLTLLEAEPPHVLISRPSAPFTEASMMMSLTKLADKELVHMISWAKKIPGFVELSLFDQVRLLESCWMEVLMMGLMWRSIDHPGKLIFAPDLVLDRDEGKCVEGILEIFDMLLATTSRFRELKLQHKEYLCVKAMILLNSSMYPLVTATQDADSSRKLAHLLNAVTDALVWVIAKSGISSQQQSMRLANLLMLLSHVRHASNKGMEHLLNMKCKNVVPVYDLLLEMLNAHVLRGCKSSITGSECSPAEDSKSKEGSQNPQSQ

[2] = system: MCF-7 cells; experiment: MCF-7 cell proliferation (MTT); type: cell-based, human; conditions: for activation at 1 µM: Homo sapiens, MCF7, 72 h, read-out: Induction of cell proliferation (MCF-7 cells) Agonism at 1μΜ (% of 0.1nM E2); for MCF-7 cell proliferation agonist effect compared to the effect of 0.1 nM estradiol: isoflavonoids 1 μM, statistically significant effects; for Induction of cell proliferation (MCF-7 cells) Agonism at 1μΜ, class: compounds 1 μM, 72 h
Method: Test compound effects on the proliferation of MCF-7 and MDA-MB-231 cells were assessed as previously described.

[3] = target: T2, ERα (Homo sapiens, UniProt P03372); experiment: ERE-dependent luciferase gene transcription in MCF-7:D5L cells; type: cell-based; parameters: MCF-7:D5L cells, a clone of MCF-7 cells stably transfected with an Estrogen Response Element (ERE)-endowed reporter plasmid; endogenous in cells; host or cells: MCF-7:D5L (MCF-7 clone carrying pERE-Gl-Luciferase); conditions: for Induction of ERE-dependent Luciferase Transcription (MCF-7:D5L cells) AUC (%): % of AUC of luciferase response of archetypal 3, 4, 5 or 8 up to 0.3, 10, 1.0 and 3.0 μM; for Induction of ERE-dependent Luciferase Transcription (MCF-7:D5L cells) EC25E2: concentration required to achieve 25% of the effect of 0.1 nM E2
T2 sequence (P03372 1-595): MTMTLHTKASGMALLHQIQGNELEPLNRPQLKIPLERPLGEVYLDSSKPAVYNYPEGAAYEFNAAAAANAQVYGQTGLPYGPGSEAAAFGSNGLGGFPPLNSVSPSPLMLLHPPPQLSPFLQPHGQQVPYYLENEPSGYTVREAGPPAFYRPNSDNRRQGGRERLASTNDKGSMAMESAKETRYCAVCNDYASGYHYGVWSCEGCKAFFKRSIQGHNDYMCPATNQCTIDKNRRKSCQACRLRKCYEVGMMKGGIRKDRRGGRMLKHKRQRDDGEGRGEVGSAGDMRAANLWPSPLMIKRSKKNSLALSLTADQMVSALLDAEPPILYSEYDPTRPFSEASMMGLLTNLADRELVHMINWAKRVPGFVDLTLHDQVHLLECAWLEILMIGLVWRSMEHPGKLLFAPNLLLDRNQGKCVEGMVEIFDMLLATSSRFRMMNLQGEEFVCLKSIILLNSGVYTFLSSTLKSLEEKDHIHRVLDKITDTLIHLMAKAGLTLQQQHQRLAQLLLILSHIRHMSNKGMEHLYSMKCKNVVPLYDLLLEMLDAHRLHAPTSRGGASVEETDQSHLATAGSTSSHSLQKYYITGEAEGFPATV
Method: (§1) Assessment of ER/ERE-dependent luciferase gene transcription in MCF-7:D5L (express ERα) and HEK:ERβ cells (express ERβ) and determination of ER transcriptional agonism was carried as already described. Briefly, the cells were plated in 96-well plates at a density of 12,000 cells per well in phenol-red-free MEM (MCF-7:D5L cells) or phenol-red-free DMEM (HEK:ERβ cells) supplemented with 1 μg/mL insulin and 5% DCC-FBS. […] The AUC of the isoflavonoids of each group were then expressed as % of the AUC of the respective archetypal isoflavone. Since AUC data combine the efficacy as well as the potency of cell response into a single parameter, the %AUC data were considered here as a more reliable measure of relative ER/ERE-dependent luciferase expression of the test compounds.

[4] = target: T1, ERβ; experiment: ERE-dependent luciferase gene transcription in HEK:ERβ cells; type: cell-based; parameters: expressed in transfected cells; host or cells: HEK-293 (HEK:ERβ clone, with pERE-tk-Luciferase)
Method: as §1

[5] = system: Ishikawa cells; experiment: Induction of AlkP expression in Ishikawa cells; type: cell-based, human; conditions: for Induction of Alkaline Phosphatase Expression (Ishikawa cells) AUC (%): % of AUC of luciferase response of archetypal 3, 4, 5 or 8 up to 0.3, 10, 1.0 and 3.0 μM; for Ratio of AUC (AlkP / Lucif): AUCAlkP / AUCluciferase; for EC (25% of 0.1 nM E2 effect) / EC50: Homo sapiens, Ishikawa; for EC (25% of 0.1 nM E2 effect) / Induction of AlkP expression (Ishikawa cells) Agonism at 1μΜ, class: 72 h; for EC (25% of 0.1 nM E2 effect): concentration required to achieve 25% of the effect of 0.1 nM E2, read-out: Induction of Alkaline Phosphatase Expression (Ishikawa cells) EC25E2; for EC50: read-out: Induction of Alkaline Phosphatase Expression (Ishikawa cells) EC50E2; for Induction of AlkP expression (Ishikawa cells) Agonism at 1μΜ, class: compounds 1 μM
Method: Induction of AlkP expression of Ishikawa cells is considered as a reliable in vitro measure of estrogenic activity. Assessment of AlkP expression in Ishikawa cells was carried as already described. Briefly, the cells were plated in 96-well plates at a density of 12,000 cells per well in phenol-red-free MEM supplemented with 1 μg/mL insulin and 5% DCC-FBS. […] Data on the dependence of AlkP activity on isoflavonoid concentration were curve fitted using SigmaPlot10 (SPSS Inc) and the numerical data of curve fitting were used to determine AUC as described above, using for the calculation of AUC of a particular AlkP response the very same concentration used for the respective luciferase response. The AUC of AlkP responses of the isoflavonoids of a group were expressed as % of the AUC of the luciferase response of the respective archetypal isoflavone.

[6] = target: T2, ERα; experiment: ER binding competitor assay (fluorescent estrogen ES2), ERα; parameters: purchased Invitrogen; conditions: RBA = (IC50 estradiol/IC50 compound) × 100; ES2 1 nM; estradiol set equal to 100
[7] = system: HT22 cells; conditions: read-out: half maximal concentration for HT22 oxytosis inhibition; cited from earlier work
[8] = concentration required to achieve 50% of the effect of 0.1 nM E2, read-out: Induction of ERE-dependent Luciferase Transcription (MCF-7:D5L cells) EC50E2
[9] = 18 h; read-out: Induction of luciferase gene transcription through ERβ, HEK:ERβ cells, Agonism at 1μΜ (% of 0.1nM E2)
[10] = isoflavonoids 1 μM; statistically significant effects
[11] = concentration required to achieve 50% of the effect of 0.1 nM E2

SMILES | RBAβ / RBAα [1] | RBAβ [1] | Induction of ERE-dependent Luciferase Transcription (MCF-7:D5L cells) AUC (%) [3] [%] | Induction of luciferase gene transcription, MCF-7:D5L cells, Agonism at 1μΜ, class ([3]; compounds 1 μM, 18 h) | Induction of ERE-dependent Luciferase Transcription (MCF-7:D5L cells) EC25E2 [3] [µM] | EC50 [3, 8] [µM] | Induction of Alkaline Phosphatase Expression (Ishikawa cells) AUC (%) [5] [%] | Ratio of AUC (AlkP / Lucif) [5] | EC (25% of 0.1 nM E2 effect) [5] [µM] | EC50 [5, 11] [µM] | Induction of AlkP expression (Ishikawa cells) Agonism at 1μΜ, class [5] | Induction of cell proliferation (MCF-7 cells) Agonism at 1μΜ, class [2] | further results
COc1cc(O)cc2occ(-c3ccc(O)cc3)c(=O)c12 [Compound 4, isoprunetin] | 5.00 | 0.15 ± 0.05 | 100±14 | Marginal (⩽10%) | 3.72 ± 0.63 | 7.32 ± 2.18 | 94±16 | 0.94±0.03 | 3.9 ± 0.19 | 7.94 ± 2.28 | Marginal (⩽10%) | – | activation at 1 µM [2]: 19 ± 6%; MCF-7 cell proliferation agonist effect compared to the effect of 0.1 nM estradiol [2]: lower than; activation at 1 µM [4, 9]: 27 ± 5%; ERβ-dependent gene transcription agonist effect compared to the effect of 0.1 nM estradiol [4, 10]: lower than
COc1ccc(-c2coc3c(OC)c(O)ccc3c2=O)cc1 [Compound 2, 8-methoxyformononetin] | 2.50 | 0.15 ± 0.04 | 0.7±0.1 | Marginal (⩽10%) | >30 | > 30 | 0.5±0.2 | 0.71±0.15 | > 30 | > 30 | Marginal (⩽10%) | Marginal (⩽10%) | RBAα [6]: 0.06 ± 0.02; Induction of luciferase gene transcription, HEK:ERβ cells, Agonism at 1μΜ, class ([4]; compounds 1 μM; 18 h): Marginal (⩽10%)
COc1cc(-c2coc3cc(O)cc(OC)c3c2=O)ccc1O [Compound 6, 3΄-methoxyisoprunetin] | 4.50 | – | 289±14 | – | 0.98 ± 0.07 | 1.57 ± 0.24 | 182±8 | 0.63±0.01 | 1.6 ± 0.05 | 2.61 ± 0.29 | Marginal (⩽10%) | – | activation at 1 µM [2]: 32 ± 3%; MCF-7 cell proliferation agonist effect compared to the effect of 0.1 nM estradiol [2]: lower than; RBAα [6]: 0.14 ± 0.04; Induction of luciferase gene transcription through ERα, MCF-7:D5L cells, Agonism at 1μΜ (% of 0.1nM E2) ([3]; compounds 1 μM, estradiol 0.1 nM, 18 h): 22 ± 5 (Weak) ^* % of 0.1nM E2; ERα-dependent gene transcription agonist effect compared to the effect of 0.1 nM estradiol ([3]; isoflavonoids 1 μM, statistically significant effects): lower than; activation at 1 µM [4, 9]: 81 ± 5%; AlkP response lower than ERα-transcriptional response (relative AUC ratios) [5]: ~ 30%
O=c1c(O)c(-c2ccc(O)c(O)c2)oc2cc(O)ccc12 [fisetin] | – | – | – | – | – | – | – | – | – | – | – | – | EC50 [7]: ≥ 3 µM
O=c1c(-c2ccc(OC3O[C@H](CO)[C@@H](O)[C@H](O)[C@H]3O)cc2)coc2c(C3O[C@H](CO)[C@@H](O)[C@H](O)[C@H]3O)c(O)cc(O)c12 (some centres unmarked) [Compound 14, 8-C,4΄-O-diglucopyranosyl-genistein] | 2.50 | 0.05 ± 0.02 | 30±13 | Marginal (⩽10%) | 3.57 ± 0.58 | – | 46±10 | 1.53±0.02 | – | – | Marginal (⩽10%) | Marginal (⩽10%) | EC50 [3]: 7.72 ± 3.08 µM; activation at 1 µM ([4]; 18 h, read-out: Induction of luciferase gene transcription through ERβ, HEK:ERβ cells, Agonism at 1μΜ (% of 0.1nM E2)): 18 ± 1%; ERβ-dependent gene transcription agonist effect compared to the effect of 0.1 nM estradiol [4, 10]: lower than; AlkP response higher than ERα-transcriptional response (relative AUC ratios) [5]: ~ 40%; EC50 [5]: 6.42 ± 1.52 µM
Oc1ccc(/C=C/c2cc(O)cc(O)c2)cc1 [resveratrol] | – | – | – | – | – | – | – | – | – | – | – | – | EC50 [7]: ≥ 3 µM
COc1cc(OC2OC(CO)C(O)C(O)C2O)cc2occ(-c3ccc(O)cc3)c(=O)c12 (centres unmarked) [Compound 10, 7-O-glucopyranosyl-isoprunetin] | 1.50 | – | 69±5 | Marginal (⩽10%) | 6.50 ± 1.10 | 29.8 ± 5.2 | 109±8 | 1.58±0.12 | 3.48 ± 0.51 | 8.23 ± 1.24 | Marginal (⩽10%) | Marginal (⩽10%) | Induction of luciferase gene transcription, HEK:ERβ cells, Agonism at 1μΜ, class ([4]; compounds 1 μM; 18 h): Marginal (⩽10%); AlkP response higher than ERα-transcriptional response (relative AUC ratios) [5]: ~ 40%
